Laboratory results reported in paper PMC7246848, “Comparative Cerebroprotective Potential of D- and L-Carnosine Following Ischemic Stroke in Mice” (International Journal of Molecular Sciences, 2020).
Where two headings read alike, the source gives them in different places.

Columns and labels:
[1] = tested on: primary mouse neurons; assay: NMDA excitotoxicity assay, cell viability by MTT; format: cell-based; details: 24 h pretreatment, 24 h after NMDA
Method: Primary cortical neurons were prepared from embryonic day 16 C57bl/6J mouse pups or embryonic day 18 Wistar rat pups. Briefly, cerebral cortices were physically and chemically dissociated with 0.25% trypsin-EDTA (Gibco, Waltham, MA, USA) in dissociation medium (HBSS) at 37 °C for 15 min followed by trituration. The dissociated cells were checked under a microscope for single cells and plated out on poly-L-lysine (Sigma-Aldrich) -coated, 24-well plates (187,500 cells/well) for the excitotoxicity assays, and 96-well plates (47,000 cells/well) for the oxidative stress assays. […]
Neurons were pretreated with L- or D-carnosine for 24 h prior to NMDA stimulation (30 µM) for 30 min. […] Cytotoxicity was measured after 24 h using the Pierce cytotoxicity lactate dehydrogenase (LDH) assay kit. Cell viability was measured by 3-[4–Dimethylthiazol-2-yl]-2,5-diphenyltetrazolium bromide (MTT) assay, which reflects cell metabolism. After NMDA removal, the cells were evaluated for cell viability after 24 h with the addition of fresh media containing each drug. […] Insoluble formazan was dissolved by the addition of 100 μL of DMSO and the absorbance (570 nm) was measured using a multimode plate reader (EnSpire, PerkinElmer, Waltham, MA, USA).

[2] = parameters: method as in PMID 23850642; details: rats, 15 min after intravenous injection of 2000 mg/kg; cited from earlier work
[3] = tested on: primary mouse neurons; assay: Oxidative stress assay: ROS accumulation (DCF fluorescence) after B27 withdrawal; format: cell-based; details: 24 h B27 withdrawal
Method: (§1) Primary cortical neurons were prepared from embryonic day 16 C57bl/6J mouse pups or embryonic day 18 Wistar rat pups. Briefly, cerebral cortices were physically and chemically dissociated with 0.25% trypsin-EDTA (Gibco, Waltham, MA, USA) in dissociation medium (HBSS) at 37 °C for 15 min followed by trituration. The dissociated cells were checked under a microscope for single cells and plated out on poly-L-lysine (Sigma-Aldrich) -coated, 24-well plates (187,500 cells/well) for the excitotoxicity assays, and 96-well plates (47,000 cells/well) for the oxidative stress assays. Neuronal cultures were maintained in B27 neurobasal medium with Glutamax and pen-strep (Gibco) in a 5% CO2 incubator at 37 °C, and cells were used at 11–14 days in vitro for experiments.
Cytosolic oxidative stress was determined using dichlorofluorescein (DCF) fluorescence. Primary neurons were loaded with 20 µM 2′, 7′-dichlorodihydrofluorescein diacetate (H2DCFDA; Invitrogen) for 45 min, washed and oxidative stress was induced by B27-withdrawal for 24 h, in the presence or absence of L- or D-carnosine. The fluorescence of oxidized DCF was read after 24 h at Ex485 nm/Em530 nm using the Pherastar FS platereader.

[4] = format: in vivo; details: mice, doses up to 1000 mg/kg
[5] = Serum pharmacokinetics after single intravenous injection (LC-MS/MS); format: in vivo; details: mice, 1000 mg/kg IV; for serum levels (molar): converted from μg/mL; for half-life: naive pooled noncompartmental analysis
Method: Mice were randomly divided into the treatment groups (n = 4~5 mice/group for each time point) and given a single intravenous injection of saline or L-carnosine (1000 mg/kg) or D-carnosine (1000 mg/kg) through the tail vein. Anesthesia was induced by isoflurane inhalation and maintained during intravenous injection. Blood samples were collected by cardiac puncture at 0, 5, 15, 30, 60, 180 and 360 min postadministration of carnosine. Blood was incubated at room temperature for 30 min to allow clotting to occur, followed by centrifugation at 12,000 g to isolate serum. Remaining blood was removed from the body through perfusion with phosphate-buffered saline, and the brain was carefully isolated. Aliquots of brain tissue (300 mg) and serum (150 μL) were stored at −70 °C and used for analysis.
Carnosine levels in serum or brain were determined using liquid chromatography tandem-mass spectrometry (LC-MS/MS) as previously described with a slight modification. H-Tyr-His-OH (Bachem AG, Köln, Germany) was used as internal standard (IS). The entire procedure for sample and standard preparation was carried out on ice. Serum (150 μL) or homogenized brain tissue (300 mg) were deproteinized using an ultrasonicator (VCX 500, Sonics & Materials Inc., Newtown, CT, USA) with 1 mL of 1 M TCA and 50 μL of 3 M TCA, respectively. After spiking the IS (10 μg for brain and 200 ng for serum), each homogenate was centrifuged at 9000 g for 15 min at 4 °C. The supernatant was used for the assay of carnosine concentrations. Calibration curves were obtained by spiking known concentrations of L- or D-carnosine (Sigma-Aldrich, St. Louis, MO, USA) into homogenates of brain or serum obtained from untreated mice, and samples were processed as described above.
Chromatographic separation and quantitation were performed using an LC-MS/MS system composed of HPLC (Ultimate 3000, Dionex, Rome, Italy) coupled with electrospray ionization (ESI) and triple quadrupole-ion trap mass spectrometry (3200 Qtrap, AB Sciex, Ontario, Canada). Synergi C18-L (Phenomenex 150 × 4.6 mm, 4 μm particle size) column was used with a 0.8 mL/min flow rate of mobile phase. Isocratic elution of 75/25 (5 mM heptafluorobutyric acid/acetonitrile) was used for brain samples and gradient elution (95/5 to 80/20 for 6 min and holding for 4 min) was used for serum samples. The injection volume was 5 μL. For ESI source, ion spray voltage was 4.5 kV and capillary temperature was set at 650 °C which provided optimum ionization of each analyte. A multiple reaction monitoring (MRM) in positive mode was used to detect carnosine (m/z 227 > 110 as quant ion, 156 and 83 as qualifier), histidine (m/z 156 > 110 as quant ion, 83 and 82 as qualifier) and IS (m/z 319 > 110 as quant ion, 156 and 91 as qualifier). Pharmacokinetic parameters were calculated by noncompartmental analysis using a sparse sampling and naïve pooled approach (WinNonLin (Phoenix 64 Build 8.0.0.3176), Certara, Mountain View, CA, USA).

[6] = tested on: rat cortical neurons; assay: NMDA excitotoxicity assay, LDH release; format: cell-based; details: NMDA 30 µM
Method: as §1
(§2) Neurons were pretreated with L- or D-carnosine for 24 h prior to NMDA stimulation (30 µM) for 30 min. Post-NMDA stimulation, the cells were washed and incubated back in the original medium in the presence or absence of L- and D-carnosine. Wells were washed and the B27-neurobasal medium was replaced in the presence or absence of L- or D-carnosine. Cytotoxicity was measured after 24 h using the Pierce cytotoxicity lactate dehydrogenase (LDH) assay kit. Cell viability was measured by 3-[4–Dimethylthiazol-2-yl]-2,5-diphenyltetrazolium bromide (MTT) assay, which reflects cell metabolism. After NMDA removal, the cells were evaluated for cell viability after 24 h with the addition of fresh media containing each drug. MTT (Sigma Aldrich; final 5 mg/mL) was added to each well and the cells were incubated for 2 h at 37 °C in the dark. Insoluble formazan was dissolved by the addition of 100 μL of DMSO and the absorbance (570 nm) was measured using a multimode plate reader (EnSpire, PerkinElmer, Waltham, MA, USA).

[7] = tested on: mouse cortical neurons; assay: NMDA excitotoxicity assay, LDH release; format: cell-based; details: NMDA 30 µM
Method: as §1, §2

[8] = tested on: transient focal cerebral ischemia (MCAO); assay: Transient focal cerebral ischemia (60 min t-MCAO), infarct volume by TTC staining; format: in vivo, mice; details: for infarct volume reduction in comparison to saline: 48 h post-t-MCAO; for infarct volume reduction: 1000 mg/kg intravenously 2 h post-t-MCAO, 48 h post-MCAO
Method: Mice were anesthetized by inhalation of 5% isoflurane (in 100% Oxygen) and maintained at 1.5% isoflurane throughout the surgical procedure. Body temperature was monitored throughout surgery using a rectal probe and maintained at 37 + 0.5 °C using a heating pad (World Precision Instruments, Hitchin, Hertfordshire, UK). Laser Doppler flowmetry (Moor Instruments, Sussex, UK) was used to monitor cerebral blood flow. Focal cerebral ischemia was induced by middle cerebral artery occlusion (MCAO) by insertion of an intraluminal monofilament. […] A midline incision was made on the ventral side of the neck and the left common carotid artery (CCA) was isolated and ligated. Another ligature was tied on the left external carotid artery (ECA) and a loose knot was tied onto the internal carotid artery (ICA) as well as CCA just below the bifurcation. A very fine incision was made on the lower end of CCA and the monofilament (Doccol Corporation, Sharon, MA, USA) was advanced approximately 9 mm distal to the bifurcation into the ICA until it reached the distal end of middle cerebral artery (MCA). Relative cerebral blood flow was monitored for initial 10 min postfilament insertion to confirm at least 70% reduction of […] values. The animals were kept under anesthesia for the ischemic period of 60 min, after which the filament was withdrawn and reperfusion (confirmed using LD) was allowed to take place. The knots were untied and the animals were allowed to recover at 37 °C for 1 h before they were transferred to their normal cages. In the first set of experiments, 60 min transient MCAO (t-MCAO) was induced in mice weighing 20-25 g. At the onset of reperfusion, saline or different doses of drugs (L- and D-carnosine; 100, 500 or 1000 mg/kg) were delivered intraperitoneally (IP). Postrecovery, the animals were allowed to recover, placed back in their normal environment for 48 h and then euthanized. (IP administration was used as it was technically difficult to do IV injections at reperfusion). In a second set of experiments, drugs and saline were administered intravenously 2 h post-t-MCAO at 1000 mg/kg. Forty-eight hours post-t-MCAO, mice were deeply anaesthetized with 5% isoflurane, brains were removed and coronal slices with a thickness of 1 mm were prepared. Brain slices were immersed in 2% TTC (Sigma Aldrich) solution and incubated at 37 °C for 20 min. The area of infarction was traced and measured using image J analysis software. The infarct area was also corrected for edema: (1-(total ipsilateral hemisphere-infarct region)/total contralateral hemisphere) × 100. Total infarct volume was calculated as the sum of all infarct areas multiplied by each section thickness.

[9] = parameters: method as in PMID 19301317; details: cited from earlier work
[10] = parameters: method as in PMID 19301317; details: cited from earlier work; remark: listed apart in the source
[11] = 100 mg/kg IP at onset of reperfusion
[12] = 500 mg/kg IP at onset of reperfusion
[13] = 1000 mg/kg IP at onset of reperfusion

SMILES	protection against decrease of cell viability by NMDA (MTT) [1]	attenuation of ROS accumulation ([3]; 200 µM) [%]	safety and tolerability [4]	serum levels (molar) ([5]; 5 min after injection) [µM]	reduction of cell death (LDH assay) ([6]; 200 µM) [%]	reduction of cell death (LDH assay) ([7]; 10 µM)	reduction of cell death (LDH assay) ([7]; 100 µM)	reduction of cell death (LDH assay) ([7]; 200 µM) [%]	infarct volume reduction in comparison to saline [8, 11] [%]	infarct volume reduction in comparison to saline [8, 12] [%]	infarct volume reduction in comparison to saline [8, 13] [%]	infarct volume reduction [8] [%]	also measured
NCCC(=O)N[C@@H](Cc1cnc[nH]1)C(=O)O [L-carnosine, β-alanyl-L-histidine]	significant protection	19.3	safe and well tolerated	17700	18.5	did not show neuroprotection	did not show neuroprotection	12.2	33.4	30.94	47.4	53.8	serum levels of carnosine [2]: 15~20 mmol/L; attenuation of ROS accumulation ([3]; 100 µM): 18.6%; clearance ([5]; mouse, serum): 0.665 L/h/kg; Cmax ([5]; mouse, serum, 5 min after injection): 4010 µg/mL; half-life ([5]; mouse, serum, read-out: Half-Life): 1.3 h; AUC ([5]; mouse, serum, read-out: AUC (converted)): 1500 µg·h/mL; Vd ([5]; mouse, serum, read-out: Vss): 0.223 L/kg
NCCC(=O)N[C@H](Cc1cnc[nH]1)C(=O)O [D-carnosine]	significant protection	14.5	safe and well tolerated	25700	22.8	13.1%	13.3%	15	23.6	27.8	57.2	52.1	stability in human plasma [9]: stable in human plasma; AUC ([5]; serum): 1801.87 µg·h/mL; CL ([5]; serum): 0.554 L/h/kg; Vss ([5]; serum): 0.12 L/kg; Cmax (5 min) ([5]; serum, 5 min after injection): 5818 µg/mL; half-life ([5]; serum): 1.25 h; reduction of cell death (LDH assay) ([6]; 10 µM): 21.9%; reduction of cell death (LDH assay) ([6]; 100 µM): 26.4%; ability to cross the blood brain barrier [10]: able to cross the blood brain barrier
